Reference: ChEMBL document CHEMBL4480430, “Advances in inhibition of protein-protein interactions targeting hypoxia-inducible factor-1 for cancer therapy” (Bioorg Med Chem, 2019)
Blank lines part the entries; values can stand above or below the compound they belong to. Numbered stars: 1 amine (or outer) side, 2 acyl side, 3 side chain; on linkers, the order of the positions; unused ones are H or OH. Square brackets hold non-standard residues; d marks the D form. Peptide text beside a SMILES is read from it. 4Abz(3-OiBu) = CC(C)COc1cc(C(=O)[*:2])ccc1N[*:1]; X3 = CC(C)Oc1cc(C(=O)[*:2])ccc1N[*:1]

Assays:
[1] = target: T1, Histone acetyltransferase p300/Hypoxia-inducible factor 1-alpha (Homo sapiens, UniProt Q09472+Q16665); assay: Inhibition of HIF-1alpha (unknown origin)/p300 (unknown origin) protein-protein interaction; type: protein-complex assay
Target sequence in this assay (Q09472 whole entry, the tested form may be a part): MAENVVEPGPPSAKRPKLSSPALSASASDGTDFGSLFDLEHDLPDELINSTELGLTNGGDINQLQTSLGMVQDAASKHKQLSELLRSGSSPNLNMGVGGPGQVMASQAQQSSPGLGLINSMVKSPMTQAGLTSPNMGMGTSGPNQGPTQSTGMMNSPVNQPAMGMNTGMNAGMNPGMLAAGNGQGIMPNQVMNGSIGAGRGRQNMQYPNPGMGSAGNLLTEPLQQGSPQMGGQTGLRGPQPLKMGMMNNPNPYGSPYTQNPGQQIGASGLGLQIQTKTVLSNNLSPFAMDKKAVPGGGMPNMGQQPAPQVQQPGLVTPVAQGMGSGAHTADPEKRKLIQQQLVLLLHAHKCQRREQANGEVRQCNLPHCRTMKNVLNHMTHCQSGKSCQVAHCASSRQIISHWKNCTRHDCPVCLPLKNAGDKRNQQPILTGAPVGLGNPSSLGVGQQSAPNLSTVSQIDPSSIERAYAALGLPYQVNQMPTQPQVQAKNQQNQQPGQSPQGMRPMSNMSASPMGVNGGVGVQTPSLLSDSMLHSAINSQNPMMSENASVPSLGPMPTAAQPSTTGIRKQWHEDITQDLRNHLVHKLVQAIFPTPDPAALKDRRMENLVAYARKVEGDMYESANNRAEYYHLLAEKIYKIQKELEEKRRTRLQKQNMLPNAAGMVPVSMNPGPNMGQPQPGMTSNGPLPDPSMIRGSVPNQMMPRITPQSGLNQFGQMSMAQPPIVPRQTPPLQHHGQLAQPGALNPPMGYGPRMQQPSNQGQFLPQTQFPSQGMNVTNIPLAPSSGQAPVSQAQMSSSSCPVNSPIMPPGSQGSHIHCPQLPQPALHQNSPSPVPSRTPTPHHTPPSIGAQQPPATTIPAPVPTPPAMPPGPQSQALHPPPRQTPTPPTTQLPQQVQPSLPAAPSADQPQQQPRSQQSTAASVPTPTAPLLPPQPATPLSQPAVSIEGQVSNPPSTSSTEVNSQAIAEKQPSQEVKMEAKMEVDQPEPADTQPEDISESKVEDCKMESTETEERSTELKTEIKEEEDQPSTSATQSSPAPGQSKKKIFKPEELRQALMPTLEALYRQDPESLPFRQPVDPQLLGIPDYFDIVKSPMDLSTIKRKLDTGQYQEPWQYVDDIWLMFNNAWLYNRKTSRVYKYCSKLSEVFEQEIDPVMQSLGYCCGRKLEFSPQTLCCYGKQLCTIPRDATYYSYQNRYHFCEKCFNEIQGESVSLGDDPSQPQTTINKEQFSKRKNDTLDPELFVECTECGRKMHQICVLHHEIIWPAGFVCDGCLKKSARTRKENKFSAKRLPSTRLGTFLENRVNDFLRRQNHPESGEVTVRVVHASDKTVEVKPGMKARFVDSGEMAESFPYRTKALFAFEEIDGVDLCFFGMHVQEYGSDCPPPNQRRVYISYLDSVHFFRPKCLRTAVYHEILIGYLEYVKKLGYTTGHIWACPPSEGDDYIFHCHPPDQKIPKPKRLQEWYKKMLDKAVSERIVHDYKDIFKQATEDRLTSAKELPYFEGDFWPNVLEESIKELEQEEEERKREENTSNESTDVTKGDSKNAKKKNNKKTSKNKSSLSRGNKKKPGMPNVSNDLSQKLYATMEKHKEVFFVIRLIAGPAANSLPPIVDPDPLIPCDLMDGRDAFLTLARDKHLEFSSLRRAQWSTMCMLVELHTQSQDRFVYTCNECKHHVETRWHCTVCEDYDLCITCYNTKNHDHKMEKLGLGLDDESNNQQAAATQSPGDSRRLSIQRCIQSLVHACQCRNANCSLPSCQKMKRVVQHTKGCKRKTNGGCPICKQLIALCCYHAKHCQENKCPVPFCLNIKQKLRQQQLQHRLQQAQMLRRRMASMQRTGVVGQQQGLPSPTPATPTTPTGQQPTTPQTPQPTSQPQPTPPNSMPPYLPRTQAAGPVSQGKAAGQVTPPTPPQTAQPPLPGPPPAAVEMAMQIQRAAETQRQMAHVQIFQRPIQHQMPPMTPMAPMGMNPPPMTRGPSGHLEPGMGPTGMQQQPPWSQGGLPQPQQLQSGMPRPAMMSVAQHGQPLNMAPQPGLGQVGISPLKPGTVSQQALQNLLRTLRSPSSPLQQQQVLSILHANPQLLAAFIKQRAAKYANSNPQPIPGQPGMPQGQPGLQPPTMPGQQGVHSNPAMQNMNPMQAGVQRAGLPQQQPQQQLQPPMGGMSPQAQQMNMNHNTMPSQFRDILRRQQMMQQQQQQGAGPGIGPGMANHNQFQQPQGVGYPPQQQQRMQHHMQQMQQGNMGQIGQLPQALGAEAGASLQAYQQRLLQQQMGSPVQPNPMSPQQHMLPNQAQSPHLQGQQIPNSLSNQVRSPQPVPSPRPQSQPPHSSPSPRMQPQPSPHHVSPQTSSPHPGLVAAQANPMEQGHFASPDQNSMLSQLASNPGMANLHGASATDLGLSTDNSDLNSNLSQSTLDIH
Target sequence in this assay (Q16665 whole entry, the tested form may be a part): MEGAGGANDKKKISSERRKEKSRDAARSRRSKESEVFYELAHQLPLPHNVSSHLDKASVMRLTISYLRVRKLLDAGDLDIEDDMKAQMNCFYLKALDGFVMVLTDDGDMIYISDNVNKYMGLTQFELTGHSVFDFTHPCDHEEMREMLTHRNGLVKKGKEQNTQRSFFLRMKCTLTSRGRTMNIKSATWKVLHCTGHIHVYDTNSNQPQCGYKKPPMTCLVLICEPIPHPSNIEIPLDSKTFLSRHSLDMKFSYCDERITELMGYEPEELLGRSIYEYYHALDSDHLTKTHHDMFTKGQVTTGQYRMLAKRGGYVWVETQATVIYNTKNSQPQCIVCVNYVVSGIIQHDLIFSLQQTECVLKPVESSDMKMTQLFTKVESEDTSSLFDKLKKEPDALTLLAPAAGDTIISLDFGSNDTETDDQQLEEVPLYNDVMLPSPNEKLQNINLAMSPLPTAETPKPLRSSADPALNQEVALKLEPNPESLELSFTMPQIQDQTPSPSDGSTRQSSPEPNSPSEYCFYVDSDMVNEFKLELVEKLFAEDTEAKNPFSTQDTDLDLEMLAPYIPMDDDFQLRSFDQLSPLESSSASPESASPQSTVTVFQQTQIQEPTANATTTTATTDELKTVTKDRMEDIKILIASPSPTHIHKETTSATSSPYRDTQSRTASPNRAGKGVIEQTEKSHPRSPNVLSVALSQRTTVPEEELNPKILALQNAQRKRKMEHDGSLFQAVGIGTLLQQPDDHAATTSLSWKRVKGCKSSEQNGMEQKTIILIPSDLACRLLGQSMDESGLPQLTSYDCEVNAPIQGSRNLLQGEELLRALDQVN

[2] = target: T2, Histone acetyltransferase p300 (Homo sapiens, UniProt Q09472); assay: Binding affinity to human p300 CH1 domain (330 to 420 residues) expressed in Escherichia coli BL21(DE3) by fluorescence anisotropy competition assay
[3] = target: T1, Histone acetyltransferase p300/Hypoxia-inducible factor 1-alpha; assay: Inhibition of fluorescein-labeled HIF-1alpha (786 to 826 residues) (unknown origin)/GST-fused p300 CH1 domain (323 to 423 residues) (unknown origin) protein-protein interaction at 500 uM after overnight incubation by time-resolved fluorescence assay relative to control; type: protein-complex assay
[4] = target: T1, Histone acetyltransferase p300/Hypoxia-inducible factor 1-alpha; assay: Inhibition of human fluorescein-labeled HIF-1alpha (786 to 826 residues)/ human GST-fused p300 CH1 domain (323 to 423 residues) protein-protein interaction after 1 hr by fluorescence polarization assay; type: protein-complex assay
Target sequence in this assay (Q09472 whole entry, the tested form may be a part): as the sequence (Q09472 whole entry, the tested form may be a part) above
Target sequence in this assay (Q16665 whole entry, the tested form may be a part): as the sequence (Q16665 whole entry, the tested form may be a part) above

[5] = target: T2, Histone acetyltransferase p300; assay: Binding affinity to human GST-fused p300 CH1 domain (323 to 423 residues) under hypoxic condition by SPR assay
[6] = target: T3, Hypoxia-inducible factor 1-alpha (Homo sapiens, UniProt Q16665); assay: Inhibition of HIF-1 dimerization in HEK293 cells after 24 hrs by renilla luciferase reporter gene assay; type: cell-based
[7] = target: T1, Histone acetyltransferase p300/Hypoxia-inducible factor 1-alpha; assay: Inhibition of HIF-1alpha (unknown origin)/p300 (unknown origin) protein-protein interaction by fluorescence anisotropy; type: protein-complex assay
Target sequence in this assay (Q09472 whole entry, the tested form may be a part): as the sequence (Q09472 whole entry, the tested form may be a part) above
Target sequence in this assay (Q16665 whole entry, the tested form may be a part): as the sequence (Q16665 whole entry, the tested form may be a part) above

[8] = system: MDA-MB-231; assay: Antitumor activity against human MDA-MB-231 cells xenografted in mouse assessed as reduction in tumor volume at 15 mg/kg administered on alternative days for 28 days relative to control; type: functional; design: scale not given: the % may be the effect or the level left
[9] = target: T3, Hypoxia-inducible factor 1-alpha; assay: Binding affinity to HIF-1alpha (unknown origin) PAS B domain assessed as incorporation at Cys255 residues by mass spectrometry; design: concentration or dose not given beside the values
Target sequence in this assay (Q16665 whole entry, looked up): as the sequence (Q16665 whole entry, the tested form may be a part) above

[10] = target: T3, Hypoxia-inducible factor 1-alpha; assay: Binding affinity to Cys255 residue of C-terminal Avi/FLAG-tagged HIF-1alpha (unknown origin) after 1 hr by AlphaScreen assay
[11] = target: T3, Hypoxia-inducible factor 1-alpha; assay: Binding affinity to His-tagged HIF-1alpha (1 to 350 residues) (unknown origin) PAS B domain expressed in Escherichia coli BL21(DE3) by ITC
[12] = target: T1, Histone acetyltransferase p300/Hypoxia-inducible factor 1-alpha; assay: Inhibition of fluorescein-labeled HIF-1alpha (786 to 826 residues) (unknown origin)/GST-fused p300 CH1 domain (323 to 423 residues) (unknown origin) protein-protein interaction after overnight incubation by time-resolved fluorescence assay; type: protein-complex assay
Target sequence in this assay (Q09472 whole entry, the tested form may be a part): as the sequence (Q09472 whole entry, the tested form may be a part) above
Target sequence in this assay (Q16665 whole entry, the tested form may be a part): as the sequence (Q16665 whole entry, the tested form may be a part) above

[13] = target: T2, Histone acetyltransferase p300; assay: Binding affinity to p300 CH1 domain (unknown origin) by tryptophan fluorescence assay
[14] = target: T1, Histone acetyltransferase p300/Hypoxia-inducible factor 1-alpha; assay: Inhibition of HIF-1alpha/p300 protein-protein interaction in human cells after 2 hrs by immunoprecipitation assay; type: cell-based
Target sequence in this assay (Q09472 whole entry, the tested form may be a part): as the sequence (Q09472 whole entry, the tested form may be a part) above
Target sequence in this assay (Q16665 whole entry, the tested form may be a part): as the sequence (Q16665 whole entry, the tested form may be a part) above

[15] = target: T3, Hypoxia-inducible factor 1-alpha; assay: Binding affinity to HIF-1alpha (unknown origin) PAS B domain assessed as incorporation at Lys297 residues by mass spectrometry
Target sequence in this assay (Q16665 whole entry, looked up): as the sequence (Q16665 whole entry, the tested form may be a part) above

[16] = target: T3, Hypoxia-inducible factor 1-alpha; assay: Binding affinity to HIF-1alpha (unknown origin) PAS B domain assessed as incorporation at His246 residues by mass spectrometry
Target sequence in this assay (Q16665 whole entry, looked up): as the sequence (Q16665 whole entry, the tested form may be a part) above

[17] = target: T3, Hypoxia-inducible factor 1-alpha; assay: Binding affinity to C-terminal Avi/FLAG-tagged HIF-1alpha (unknown origin) assessed as incorporation at His266 residues by mass spectrometry
Target sequence in this assay (Q16665 whole entry, looked up): as the sequence (Q16665 whole entry, the tested form may be a part) above

[18] = target: T3, Hypoxia-inducible factor 1-alpha; assay: Binding affinity to HIF-1alpha (unknown origin) PAS B domain assessed as incorporation at Cys334 residues by mass spectrometry
Target sequence in this assay (Q16665 whole entry, looked up): as the sequence (Q16665 whole entry, the tested form may be a part) above

[19] = target: T2, Histone acetyltransferase p300; assay: Binding affinity to p300 (unknown origin) by fluorescence anisotrophy

T2 sequence (Q09472 whole entry, the tested form may be a part): as the sequence (Q09472 whole entry, the tested form may be a part) above

Compound: COc1ccc(S(=O)(=O)N(Cc2ccc3c(c2)C=CC(C)(C)O3)c2ccccc2)cc1OC
IC50 [1]: 0.59 µM

IC50 [2]: 24 µM
Compound: CC(C)COc1cc(C(=O)O)ccc1NC(=O)c1ccc(NC(=O)c2ccc(N)c(OC(C)C)c2)c(OCC(C)C)c1

Compound: CN1C(=O)[C@@]23C[C@]4([C@]56C[C@@]78SS[C@@](CO)(C(=O)N7[C@H]5Nc5ccccc56)N(C)C8=O)c5ccccc5N[C@@H]4N2C(=O)[C@]1(CO)SS3 [CHAETOCIN]
IC50 [1]: 12.5 µM

inhibition [3]: 27%
Compound: COc1ccc([C@]2(c3nc(N)[nH]c3-c3ccc(O)cc3)N=C3N=CC=C4c5ccccc5N=C2N43)cc1

IC50 [4]: 0.6 to 0.7 µM
Kd [5]: 3.62 µM
Compound: CN1C(=O)[C@@]2(Cc3ccc(CCc4ccc(C[C@@]56SS[C@@](CO)(C(=O)N5C)N(C)C6=O)cc4)cc3)NC(=O)[C@]1(CO)SS2

Compound: C[n+]1c2cc(N)ccc2cc2ccc(N)cc21 [EUFLAVINE]
IC50 [6]: 1 µM

IC50 [7]: 89 µM
Compound: H-QLTSYDCEVNAPIQGSRNLLQGEELLRALDQVN-OH

IC50 [2]: 9.19 µM
Compound: CC(C)COc1cc(C(=O)Nc2ccc(C(=O)Nc3ccc(C(=O)O)cc3OC(C)C)cc2OCC(C)C)ccc1N

Compound: CC(C)C[C@@H]1NCCN([C@@H](CC(C)C)C(=O)N2CCN([C@@H](CCC(N)=O)C(N)=O)C(=O)[C@@H]2C)C1=O
Activity [8]: 50%

Activity [9]: 25%
Compound: C=CC(=O)N1CCc2ccccc21

Activity [9]: > 50%
IC50 [10]: 0.043 µM
Compound: O=[N+]([O-])c1ccc2c(c1)S(=O)(=O)C=C2

IC50 [7]: 83 µM
Compound: CC[C@H](C)[C@H](NC(=O)[C@@H]1CCCN1C(=O)[C@H](C)NC(=O)[C@H](CC(N)=O)NC(=O)[C@@H](NC(=O)[C@H](CCC(=O)O)NC(=O)[C@H](CO)NC(=O)[C@H](CC(=O)O)NC(=O)[C@H](Cc1ccc(O)cc1)NC(=O)[C@H](CO)NC(=O)[C@@H](NC(=O)[C@H](CC(C)C)NC(=O)[C@@H](N)CCC(N)=O)[C@@H](C)O)C(C)C)C(=O)N[C@@H](CCC(N)=O)C(=O)NCC(=O)N[C@@H](CO)C(=O)N[C@@H](CCCNC(=N)N)C(=O)N[C@@H](CC(N)=O)C(=O)N[C@@H](CC(C)C)C(=O)N[C@@H](CC(C)C)C(=O)N[C@@H](CCC(N)=O)C(=O)NCC(=O)Nc1ccc(C(=O)Nc2ccc(C(=O)Nc3ccc(C(=O)NCC(N)=O)cc3OC(C)C)cc2OCC(C)C)cc1OCC(C)C (H-QLTSYDSEVNAPIQGSRNLLQG[4Abz(3-OiBu)][4Abz(3-OiBu)][X3]G-NH2)

IC50 [1]: 0.9 µM
Compound: COc1ccc(S(=O)(=O)N(Cc2ccc(CN3CCOCC3)cc2)c2ccccc2)cc1OC

Kd [11]: 0.124 µM
Compound: CC(C)C[C@@H]1NC(=O)[C@H](CS)NC(=O)[C@H](Cc2ccc(O)cc2)NC(=O)[C@H](C(C)C)NC(=O)[C@H](Cc2ccccc2)NC(=O)[C@H](CC(C)C)NC1=O

IC50 [12]: 276 µM
Compound: COc1ccc([C@@]2(c3nc(N)[nH]c3-c3ccc(O)cc3)N=C3N=CC=C4c5ccccc5N=C2N43)cc1

Compound: CCCC[C@@H](C(=O)N1CCN([C@@H](CCC(N)=O)C(N)=O)C(=O)[C@@H]1C)N1CCN[C@@H](CC(C)C)C1=O
Kd [13]: 30 µM

Compound: CN1C(=O)[C@]2(Cc3cn([C@]45C[C@@]67SS[C@@](CO)(C(=O)N6[C@H]4Nc4ccccc45)N(C)C7=O)c4ccccc34)SS[C@@]1(CO)C(=O)N2C [CHETOMIN]
IC50 [14]: 0.54 µM

Activity [15]: 10 to 20%
Activity [9]: > 50%
Activity [16]: 10 to 20%
Activity [17]: 10 to 20%
Activity [18]: 10 to 20%
Compound: CC1=CC(O)(C#Cc2ccccc2)C=CC1=O (centres undefined)

Compound: C=C1C(=O)OC2C1CCC(=C)C1CC(=O)C(=C)C12 (centres undefined)
Activity [15]: 10 to 20%
Activity [9]: > 50%
Activity [16]: 10 to 20%
Activity [17]: 10 to 20%
Activity [18]: 10 to 20%

IC50 [1]: 1 µM
Compound: COc1ccc(S(=O)(=O)N(Cc2ccc(CN3CCOCC3)cc2)C2CCC2)cc1OC

Compound: COc1ccc(S(=O)(=O)N(Cc2ccc3c(n2)C=CC(C)(C)O3)C2CCC2)cc1OC
IC50 [1]: 0.28 µM

Compound: CN1C(=O)[C@@]2(Cc3ccc(C[C@]45SS[C@](CO)(C(=O)N4C)N(C)C5=O)cc3)SS[C@]1(CO)C(=O)N2C
IC50 [4]: 1.5 µM
Kd [5]: 0.75 µM

Activity [15]: 10 to 20%
Activity [9]: > 50%
Activity [16]: 10 to 20%
Activity [17]: 10 to 20%
Activity [18]: 10 to 20%
Compound: COC(=O)/C=C1/OC(c2ccc(O)cc2)=CC1=O

Kd [19]: 6.74 µM
Compound: H-QLTSYDCEVNA-OH
